ChEMBL document CHEMBL3124910, “Discovery and structure-activity relationships study of novel thieno[2,3-b]pyridine analogues as hepatitis C virus inhibitors” (Bioorg Med Chem Lett, 2014)

What was measured:
[1] = biological target: T1, Inhibitor of nuclear factor kappa-B kinase subunit beta (Homo sapiens) (UniProt O14920); assay: Inhibition of human IKKbeta at 10 uM after 40 mins by scintillation counting analysis in presence of [gamma-33P]ATP
T1 sequence (whole entry): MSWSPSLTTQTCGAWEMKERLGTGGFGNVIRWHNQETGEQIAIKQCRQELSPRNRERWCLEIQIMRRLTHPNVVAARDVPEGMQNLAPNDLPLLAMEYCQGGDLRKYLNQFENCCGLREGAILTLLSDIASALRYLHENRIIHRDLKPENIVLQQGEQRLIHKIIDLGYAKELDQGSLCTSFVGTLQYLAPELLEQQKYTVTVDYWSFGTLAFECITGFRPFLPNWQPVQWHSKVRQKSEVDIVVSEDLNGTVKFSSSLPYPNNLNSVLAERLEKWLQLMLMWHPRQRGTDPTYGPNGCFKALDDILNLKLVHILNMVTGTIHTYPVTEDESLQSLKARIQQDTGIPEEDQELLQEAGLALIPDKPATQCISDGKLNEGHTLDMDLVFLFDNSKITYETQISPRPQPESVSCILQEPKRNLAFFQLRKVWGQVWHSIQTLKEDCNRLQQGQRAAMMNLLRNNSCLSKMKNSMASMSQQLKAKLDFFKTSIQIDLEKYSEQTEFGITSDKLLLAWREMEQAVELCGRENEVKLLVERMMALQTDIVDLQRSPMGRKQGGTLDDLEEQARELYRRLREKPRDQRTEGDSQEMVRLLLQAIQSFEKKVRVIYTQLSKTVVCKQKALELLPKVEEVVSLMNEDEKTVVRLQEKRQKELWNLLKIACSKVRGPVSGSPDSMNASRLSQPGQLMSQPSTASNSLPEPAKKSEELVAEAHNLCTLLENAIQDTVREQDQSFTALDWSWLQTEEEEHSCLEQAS

[2] = biological target: T2, Inhibitor of nuclear factor kappa-B kinase subunit alpha (Homo sapiens) (UniProt O15111); assay: Inhibition of human IKKalpha at 10 uM after 40 mins by scintillation counting analysis in presence of [gamma-33P]ATP
T2 sequence (whole entry): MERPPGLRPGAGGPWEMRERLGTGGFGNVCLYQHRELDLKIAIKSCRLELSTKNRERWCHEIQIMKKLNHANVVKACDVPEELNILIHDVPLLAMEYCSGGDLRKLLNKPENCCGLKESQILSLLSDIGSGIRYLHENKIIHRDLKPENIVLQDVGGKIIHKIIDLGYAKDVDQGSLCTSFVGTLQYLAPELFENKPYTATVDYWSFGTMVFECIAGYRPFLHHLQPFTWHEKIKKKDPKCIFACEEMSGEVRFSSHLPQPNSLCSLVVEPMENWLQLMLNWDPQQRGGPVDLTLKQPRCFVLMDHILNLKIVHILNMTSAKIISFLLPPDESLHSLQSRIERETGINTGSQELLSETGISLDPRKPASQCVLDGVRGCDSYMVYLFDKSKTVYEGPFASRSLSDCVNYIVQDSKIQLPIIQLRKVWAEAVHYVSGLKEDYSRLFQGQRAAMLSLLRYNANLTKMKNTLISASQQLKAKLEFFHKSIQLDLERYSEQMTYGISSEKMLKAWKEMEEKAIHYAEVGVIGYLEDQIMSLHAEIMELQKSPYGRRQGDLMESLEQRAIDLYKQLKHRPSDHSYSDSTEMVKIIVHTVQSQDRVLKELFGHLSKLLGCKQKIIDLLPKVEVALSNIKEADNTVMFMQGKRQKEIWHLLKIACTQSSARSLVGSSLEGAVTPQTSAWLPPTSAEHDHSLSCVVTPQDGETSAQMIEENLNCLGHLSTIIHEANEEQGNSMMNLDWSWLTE

[3] = Cytotoxicity against human LO2 cells after 72 hrs by MTT assay; assay type: cell-based, L02
[4] = Cytotoxicity against human HEK293 cells after 72 hrs by MTT assay; assay type: cell-based
[5] = Selectivity index, ratio of CC50 for human HuH7 cells to EC50 for HCV genotype 1b infected in human HuH7 cells; set-up: species or system Huh-7
Hepatitis C virus [6] = assay: Antiviral activity against HCV genotype 1b infected in human HuH7 cells assessed as inhibition of viral RNA replication after 72 hrs by luciferase reporter gene assay; assay type: functional, organism-based, Hepacivirus hominis; details: Huh-7, 72 h
[7] = Cytotoxicity against human HuH7 cells after 72 hrs by MTT assay; assay type: cell-based, Huh-7
Hepatitis C virus [8] = assay: Antiviral activity against HCV genotype 1b infected in human HuH7 cells assessed as inhibition of viral RNA replication at 20 uM after 72 hrs by luciferase reporter gene assay; assay type: functional, Hepacivirus hominis; details: Huh-7, 72 h

| Structure (SMILES) | EC50 (Hepatitis C virus [6]) | CC50 at 72 h [7] | also measured |
| --- | --- | --- | --- |
| COc1ccc(-c2cc(C(F)(F)F)c3c(N)c(C(N)=O)sc3n2)cc1 | 4 µM | 46.4 µM | inhibition [1]: 6%; inhibition [2]: 7%; CC50 at 72 h [3]: 26.2 µM; CC50 at 72 h [4]: 24.7 µM; Ratio CC50/EC50 [5]: 11.6 |
| CCOC(=O)c1sc2nc(-c3cccs3)cc(C(F)(F)F)c2c1N | 10 µM | > 20 µM |  |
| CCOC(=O)c1oc2nc(-c3cccs3)cc(C(F)(F)F)c2c1N | 18.5 µM | > 20 µM |  |
| Nc1c(C(=O)N2CCNCC2)sc2nc(-c3ccccc3)cc(C(F)(F)F)c12 | 9.6 µM | > 20 µM |  |
| Nc1c(C(=O)N2CCOCC2)sc2nc(-c3ccccc3)cc(C(F)(F)F)c12 | 3.3 µM | > 100 µM | CC50 at 72 h [3]: 94.4 µM; CC50 at 72 h [4]: 85.1 µM; Ratio CC50/EC50 [5]: >30.3 |
| Nc1c(C(=O)N2CCSCC2)sc2nc(-c3ccccc3)cc(C(F)(F)F)c12 | 7.2 µM | > 20 µM |  |
| NC(=O)c1sc2nc(C3CC3)cc(C(F)(F)F)c2c1N | 12.2 µM | > 20 µM |  |
| Nc1c(C(=O)N2CCOCC2)sc2nc(-c3ccccc3F)cc(C(F)(F)F)c12 | 17.6 µM | > 20 µM |  |
| Nc1c(C(=O)N2CCOCC2)sc2nc(-c3ccc(Cl)c(Cl)c3)cc(C(F)(F)F)c12 | > 20 µM | > 20 µM |  |
| CN1CCN(C(=O)c2sc3nc(-c4ccccc4)cc(C(F)(F)F)c3c2N)CC1 | 11.4 µM | > 20 µM |  |
| Nc1c(C(=O)N2CCOCC2)sc2nc(-c3ccc(F)cc3)cc(C(F)(F)F)c12 | 18.6 µM | > 20 µM |  |
| COc1ccc(-c2cc(C(F)(F)F)c3c(N)c(C(=O)N4CCOCC4)sc3n2)cc1 | 10.3 µM | > 20 µM |  |
| COc1cccc(-c2cc(C(F)(F)F)c3c(N)c(C(N)=O)sc3n2)c1 |  | > 20 µM | inhibition at 20 µM (Hepatitis C virus [8]): 45% |
| Nc1c(C(=O)N2CCOCC2)sc2nc3c(c(C(F)(F)F)c12)CCc1ccccc1-3 | 3.9 µM | > 100 µM | CC50 at 72 h [3]: > 100 µM; CC50 at 72 h [4]: 72.7 µM; Ratio CC50/EC50 [5]: >25.6 |
| Nc1c(C(=O)NC2CCCC2)sc2nc(-c3ccccc3)cc(C(F)(F)F)c12 | 5.5 µM | > 20 µM |  |
| Nc1c(C(=O)N2CCOCC2)sc2nc(-c3ccccc3)ccc12 | 17.2 µM | > 20 µM |  |
| O=C(c1cc2c(C(F)(F)F)cc(-c3ccccc3)nc2s1)N1CCOCC1 | 4.5 µM | > 100 µM | CC50 at 72 h [3]: > 100 µM; CC50 at 72 h [4]: 92.6 µM; Ratio CC50/EC50 [5]: >22.2 |
| CC(C)(C)OC(=O)N1CCN(C(=O)c2sc3nc(-c4ccccc4)cc(C(F)(F)F)c3c2N)CC1 | > 20 µM | > 20 µM |  |
| CCN(CC)C(=O)c1sc2nc(-c3ccccc3)cc(C(F)(F)F)c2c1N | 3.5 µM | > 100 µM | CC50 at 72 h [3]: > 100 µM; CC50 at 72 h [4]: > 100 µM; Ratio CC50/EC50 [5]: >28.6 |
| COc1cccc(-c2ccc3c(N)c(C(N)=O)sc3n2)c1 | > 20 µM | < 0.4 µM |  |
| COc1cccc(-c2cc(C(F)(F)F)c3c(N)c(C(=O)N4CCOCC4)sc3n2)c1 | 10.8 µM | > 20 µM |  |
| Cc1cc(-c2ccccc2)nc2sc(C(=O)N3CCOCC3)c(N)c12 | 5.8 µM | > 20 µM |  |
| CCOC(=O)c1oc2nc(-c3ccccc3)cc(C(F)(F)F)c2c1N | 6.8 µM | > 20 µM |  |
| COc1ccccc1-c1ccc2c(N)c(C(N)=O)sc2n1 | > 20 µM | > 20 µM |  |

| Structure (SMILES) | EC50 (Hepatitis C virus [6]) | CC50 at 72 h [7] | also measured |
| --- | --- | --- | --- |
| CCOC(=O)c1sc2nc(-c3ccccc3)cc(C(F)(F)F)c2c1N | 19.3 µM | > 20 µM |  |
| NC(=O)c1sc2nc(-c3ccccc3)cc(C(F)(F)F)c2c1N | 8.2 µM | > 20 µM |  |
| Nc1c(C(=O)N2CCCCC2)sc2nc(-c3ccccc3)cc(C(F)(F)F)c12 | 5.9 µM | > 20 µM |  |
| Nc1c(C(=O)N2CCOCC2)oc2nc(-c3ccccc3)cc(C(F)(F)F)c12 | 11.2 µM | > 20 µM |  |
| CN(C)C(=O)c1sc2nc(-c3ccccc3)cc(C(F)(F)F)c2c1N | 8.2 µM | > 20 µM |  |
| Nc1c(C(=O)N2CCOCC2)sc2nc(-c3cnccn3)cc(C(F)(F)F)c12 | > 20 µM | > 20 µM |  |
| COc1ccccc1-c1cc(C(F)(F)F)c2c(N)c(C(=O)N3CCOCC3)sc2n1 | 8.3 µM | > 20 µM |  |
| Nc1c(C(=O)O)sc2nc(-c3ccccc3)cc(C(F)(F)F)c12 | > 20 µM | > 20 µM |  |
| Nc1c(C(=O)N2CCOCC2)sc2nc(C3CC3)cc(C(F)(F)F)c12 | 9.7 µM | > 20 µM |  |
| Nc1c(C(=O)N2CCc3sccc3C2)sc2nc(-c3ccccc3)cc(C(F)(F)F)c12 | 12.5 µM | > 20 µM |  |
| COc1ccc(-c2ccc3c(N)c(C(N)=O)sc3n2)cc1 | > 20 µM | < 0.4 µM |  |
| CCOC(=O)c1sc2nc(-c3ccco3)cc(C(F)(F)F)c2c1N | 5.7 µM | > 20 µM |  |
| Nc1c(C(=O)N2CCn3c(nnc3C(F)(F)F)C2)sc2nc(-c3ccccc3)cc(C(F)(F)F)c12 | 3.3 µM | 45.2 µM | CC50 at 72 h [3]: 40.7 µM; CC50 at 72 h [4]: 28 µM; Ratio CC50/EC50 [5]: 13.7 |
| Nc1c(C(=O)N2CCOCC2)sc2nc(-c3cccc(F)c3)cc(C(F)(F)F)c12 | 6.7 µM | > 20 µM |  |
| Nc1c(C(=O)N2CCC(=O)CC2)sc2nc(-c3ccccc3)cc(C(F)(F)F)c12 | > 20 µM | > 20 µM |  |
| Nc1c(C(=O)NCc2ccccc2)sc2nc(-c3ccccc3)cc(C(F)(F)F)c12 | > 20 µM | > 20 µM |  |
| CCOC(=O)c1sc2nc(C3CC3)cc(C(F)(F)F)c2c1N | 6.8 µM | > 20 µM |  |
| Nc1c(C(=O)NCc2cccs2)oc2nc(-c3ccccc3)cc(C(F)(F)F)c12 | 9.8 µM | > 20 µM |  |
| Nc1c(C(=O)N2CCOCC2)sc2nc(-c3ccco3)cc(C(F)(F)F)c12 | 9.6 µM | > 20 µM |  |
| Nc1c(C(=O)N2CCOCC2)sc2nc(-c3nccs3)cc(C(F)(F)F)c12 | 8.9 µM | > 20 µM |  |
| COc1ccccc1-c1cc(C(F)(F)F)c2c(N)c(C(N)=O)sc2n1 | 14.3 µM | > 20 µM |  |
| Nc1c(C(=O)N2CCOCC2)sc2nc(-c3cccs3)cc(C(F)(F)F)c12 | 6.5 µM | > 20 µM |  |
| Nc1c(C(=O)NCc2cccs2)sc2nc(-c3ccccc3)cc(C(F)(F)F)c12 | 8.2 µM | > 20 µM |  |
